Earlier results as cited in patent US7994157B2, “Method for dispersing plant sterol for beverage and a plant sterol-dispersed beverage, of which particle size is nanometer-scale in dispersed beverage” (KIP Biotech LLC, priority 2000, dated 2011).

System: serum cholesterol level
Settings: applied form in an oil phase (margarine); U.S. Pat. No. 5,502,045

Substance: sitostanol fatty acid ester
- reduction of the LDL-C level: ≤ 16%
